Laboratory results as given in PMC6361752, “Construction of a Quantitative Structure Activity Relationship (QSAR) Model to Predict the Absorption of Cephalosporins in Zebrafish for Toxicity Study” (Frontiers in Pharmacology, 2019).

Tested on: Zebrafish wild-type (WT) embryos
Test: Absorption (internal concentration) of cephalosporins in zebrafish embryos by LC-MS/MS
Conditions: 6 hpf-3 dpf; for k-value (slope of the dose-internal concentration linear regression): zebrafish embryos, 0.28, 1.0 and 2.0 mM, higher k = more readily absorbed
Method: Zebrafish (Danio rerio) were fed at the Institute of Medicinal Biotechnology, Beijing Union Medical College, Beijing, China. […] Zebrafish wild-type (WT) embryos (n = 30) at 6 h post-fertilization (6 hpf) were used. After immersing the embryos in 2 mL of each drug solution (Drugs were dissolved in breeding water), they were incubated in a 20 mm dish for 3 days. […] The zebrafish bodies were collected at 3 days post-fertilization (dpf). The blank controls were zebrafish WT embryos (n = 30) that were incubated in breeding water.
Using a cell strainer (100 μm, BD-Falcon, United States), zebrafish bodies (30 in each dish) were washed five times with deionized water. Zebrafish bodies were triturated in 100 μL of deionized water, and then they were homogenized for 1 min. Zebrafish homogenate (50 μL) and internal standard (IS) working solution (10 μL) were individually transferred into a 1.5-mL microcentrifuge tube. Then, 200 μL of 1% formic acid-methanol solution was added into the tube. The samples were vortexed for 20 s. To precipitate proteins, the samples were centrifuged at 10,800 g for 10 min. The resultant supernatant (10 μL) was injected into LC-MS/MS for analysis.
The LC-MS/MS technique was performed by combining a 20A LC (Shimadzu, Kyoto, Japan) and a 6500 Q-Trap mass spectrometer (AB Sciex, Foster City, CA, United States), which was equipped with an electrospray ionization (ESI) source. Moreover, LC separations were performed on a reversed-phase ACE C18 column (5 cm × 2.1 mm ID, 3 μm particle size, Advanced Chromatography Technologies, Aberdeen, United Kingdom), which was attached to a corresponding guard column (1 cm × 2.1 mm ID, 3 μm particle size; Advanced Chromatography Technologies, United Kingdom). The mobile phase comprised of 5 mM ammonium formate (pH = 3.5) (solvent A) and acetonitrile (solvent B). The composition of the gradient was as follows: 2% solvent B for the first 0.1 min; 3.5 min, 90% solvent B; 6.0 min, 90% solvent B; 6.1 min, 2% solvent B; and 10 min, 2% solvent B. Mass spectrometric analysis was performed in a positive mode. Ion-spray voltage was set at 5000 V, and source temperature was kept fixed at 500°C. Curtain gas, gas 1, and gas 2 were 25, 40, and 40 psi, respectively. Multiple reaction monitoring (MRM) scan was used for the quantification of 19 analytes. In this scan, we determined the most intense product ion (PI) of each analyte. The entrance potential (EP) of all analytes was 10 eV. For each ion transition, dwell time and pause time were set to 30 and 5 ms, respectively. The Analyst 1.6.2 software (AB Sciex, Foster City, CA, United States) was used to perform data acquisition and analysis.
Dose-internal concentration curves were constructed by linear regression analysis. The slope of each linear regression was defined as k-value for each drug. […] The entire data set was split into the training set and test set by a random index, which was operated by DS4.0 software. The training set percentage was set at 80.
Using the aforementioned method, we analyzed the internal concentrations of cephalosporins in zebrafish. […] The calibration samples and administration samples were processed in a timely manner. The internal concentration of each cephalosporin in the zebrafish was calculated by using the corresponding calibration curve (Table 2). […] Dose-internal concentration curves were constructed by linear regression analysis (Figure 1). For each drug, the slope of each linear regression was defined as k-value. This parameter was used to evaluate the absorption capacity of each drug.

[1] = zebrafish embryos exposed to 0.28 mM drug solution
[2] = zebrafish embryos exposed to 1 mM drug solution
[3] = zebrafish embryos exposed to 2 mM drug solution

SMILES | Internal concentration [1] [mM × 10^-5] | Internal concentration [2] [mM × 10^-5] | Internal concentration [3] [mM × 10^-5] | k-value (slope of the dose-internal concentration linear regression) | other results
N[C@@H](C(=O)N[C@@H]1C(=O)N2C(C(=O)O)=C(Cl)CS[C@H]12)c1ccccc1 [Cefaclor] | 1.01 | 3.43 | 9.49 | 5.0027 | k-value (slope of the dose-internal concentration linear regression) (listed as cefaclor): > 5
CC1=C(C(=O)O)N2C(=O)[C@@H](NC(=O)[C@H](N)c3ccc(O)cc3)[C@H]2SC1 [Cefadroxil] | 1.32 | 7.07 | 12.55 | 6.4617 | k-value (slope of the dose-internal concentration linear regression) (listed as cefadroxil): > 5
CC1=C(C(=O)O)N2C(=O)[C@@H](NC(=O)[C@H](N)c3ccccc3)[C@H]2SC1 [Cefalexin] | 1.01 | 5.48 | 16.83 | 9.3280 | 
CC(=O)OCC1=C(C(=O)O)N2C(=O)[C@@H](NC(=O)CSC(=NC(C)C)NC(C)C)[C@H]2SC1 [Cefathiamidine] | 0.49 | 1.29 | 1.63 | 0.6439 | k-value (slope of the dose-internal concentration linear regression) (listed as cefathiamidine): < 5
Cc1nnc(SCC2=C(C(=O)O)N3C(=O)[C@@H](NC(=O)Cn4cnnn4)[C@H]3SC2)s1 [Cefazolin] | 8.56 | 13.95 | 14.19 | 3.0851 | k-value (slope of the dose-internal concentration linear regression) (listed as cefazolin): < 5
CO/N=C(\C(=O)N[C@@H]1C(=O)N2C(C(=O)O)=C(CSc3nnnn3C)CS[C@H]12)c1csc(N)n1 [Cefmenoxime] | 0.00 | 0.71 | 1.14 | 0.6493 | k-value (slope of the dose-internal concentration linear regression) (listed as cefmenoxime): < 5
CO/N=C(\C(=O)N[C@@H]1C(=O)N2C(C(=O)O)=C(CSc3nc(C)c(CC(=O)O)s3)CS[C@H]12)c1csc(N)n1 [Cefodizime] | 0.51 | 0.94 | 3.47 | 1.7709 | k-value (slope of the dose-internal concentration linear regression) (listed as cefodizime): < 5
CCN1CCN(C(=O)N[C@@H](C(=O)N[C@@H]2C(=O)N3C(C(=O)O)=C(CSc4nnnn4C)CS[C@H]23)c2ccc(O)cc2)C(=O)C1=O [Cefoperazone] | 1.30 | 5.75 | 12.47 | 6.5063 | k-value (slope of the dose-internal concentration linear regression) (listed as cefoperazone): > 5
CO/N=C(\C(=O)N[C@@H]1C(=O)N2C(C(=O)O)=C(COC(C)=O)CS[C@H]12)c1csc(N)n1 [Cefotaxime] | 0.27 | 0.75 | 0.82 |  | 
CN(C)CCn1nnnc1SCC1=C(C(=O)O)N2C(=O)[C@@H](NC(=O)Cc3csc(N)n3)[C@H]2SC1 [Cefotiam] | 0.25 | 1.31 | 3.73 | 2.0488 | k-value (slope of the dose-internal concentration linear regression) (listed as cefotiam): < 5

Second part, led by results:

Internal concentration [1] [mM × 10^-5] | Internal concentration [2] [mM × 10^-5] | Internal concentration [3] [mM × 10^-5] | k-value (slope of the dose-internal concentration linear regression) | SMILES | other results
2.22 | 12.73 | 18.39 | 9.1638 | CO[C@@]1(NC(=O)Cc2cccs2)C(=O)N2C(C(=O)O)=C(COC(N)=O)CS[C@@H]21 [Cefoxitin] | k-value (slope of the dose-internal concentration linear regression) (listed as cefoxitin): > 5
0.21 | 0.86 | 1.67 | < 5 | CO/N=C(\C(=O)N[C@@H]1C(=O)N2C(C(=O)[O-])=C(C[n+]3cccc4c3CCC4)CS[C@H]12)c1csc(N)n1 [Cefpirome] | 
3.15 | 8.93 | 19.89 | 9.8110 | CC1=C(C(=O)O)N2C(=O)[C@@H](NC(=O)[C@H](N)C3=CCC=CC3)[C@H]2SC1 [Cefradine] | k-value (slope of the dose-internal concentration linear regression) (listed as cefradine): > 5
0.00 | 2.45 | 5.47 | 3.1702 | CC(C)(O/N=C(\C(=O)N[C@@H]1C(=O)N2C(C(=O)[O-])=C(C[n+]3ccccc3)CS[C@H]12)c1csc(N)n1)C(=O)O [Ceftazidime] | k-value (slope of the dose-internal concentration linear regression) (listed as ceftazidime): < 5
3.95 | 7.08 | 12.96 | 5.2798 | O=C(Cn1cnnn1)N[C@@H]1C(=O)N2C(C(=O)O)=C(CSc3nncs3)CS[C@H]12 [Ceftezole] | k-value (slope of the dose-internal concentration linear regression) (listed as ceftezole): > 5
1.17 | 3.70 | 13.15 | 7.1156 | CO/N=C(\C(=O)N[C@@H]1C(=O)N2C(C(=O)O)=CCS[C@H]12)c1csc(N)n1 [Ceftizoxime] | k-value (slope of the dose-internal concentration linear regression) (listed as ceftizoxime): > 5
0.68 | 1.55 | 4.66 | 2.3643 | CO/N=C(\C(=O)N[C@@H]1C(=O)N2C(C(=O)O)=C(COC(N)=O)CS[C@H]12)c1ccco1 [Cefuroxime] | k-value (slope of the dose-internal concentration linear regression) (listed as cefuroxime): < 5
1.07 | 8.30 | 11.54 | 5.9111 | CO[C@@]1(NC(=O)CSC(F)F)C(=O)N2C(C(=O)O)=C(CSc3nnnn3CCO)CO[C@@H]21 [Flomoxef] | k-value (slope of the dose-internal concentration linear regression) (listed as flomoxef): > 5
